US11691947B2, “Isoindoline compositions and methods for treating neurodegenerative disease” (priority 2014, dated 2023)
Entries after “also recorded” stand apart in the source; their conditions may differ.

What was measured:
[1] = test system: Abeta 42 oligomer-induced synapse loss in primary neurons; assay: Abeta oligomer-induced synapse loss assay; format: cell-based
Procedure: The number of synapses can also be quantified in this assay by immunofluorochemistry.
Primary hippocampal neuronal culture is established as in the membrane trafficking assay above. […] Pretreatment with test compounds for 1 hr and addition of Abeta oligomers or no oligomer (vehicle alone) is followed by incubation for an additional 23 hrs.
The plates are then washed 3× with PBS for 5 min each. The plates are blocked at RT for 1 hr in 5% goat serum and 0.5% Triton X-100 in PBS. Primary antibodies (anti-MAP 2 polyclonal, Millipore #AB5622 and anti-Beta Amyloid 6E10 monoclonal, Covance #SIG-39300, at 1 microgram/ml, and rabbit polyclonal anti-synaptophysin, Anaspec, at 0.2 microgram/ml) were diluted 1:1000 in 5% goat serum with PBS. Primary antibodies are incubated overnight at 4° C. The plates are then washed 3× with PBS for 5 min each. Secondary antibodies (Alex Flor 488 polyclonal, Invitrogen #A11008 and Alexa Flor 647 monoclonal, Invitrogen #A21235) are diluted 1:1000 in 5% goat serum with PBS. Secondary antibodies are incubated at RT for 1 hr. The plates are washed once with PBS. DAPI (4′,6-diamidino-2-phenylindole, Invitrogen) is then applied at 0.03 ug/ul and incubated at RT for 5 min, then washed with PBS.

caspase-3 = details: cited from earlier work; for caspase-3 activation: tumor cells and neurons, WO2013/029060 FIGS. 10A and 10B
[2] = test system: MDA-MB-435 or MDA-MB231 or SKOV-3 cells; assay: MTS tumor cell viability assay (agonist/antagonist activity of sigma-2 ligands); format: cell-based
Procedure: The cytotoxicity of test compounds is determined using the CellTiter96 Aqueous One Solution Assay (Promega, Madison, Wis.). Briefly, MDA-MB-435 or MDA-MB231 or SKOV-3 cells were seeded in a 96-well plate at a density of 2000 cells/well on the day prior to treatment with sigma-2 receptor selective ligands. After a 24 hour treatment, the CellTiter 96 AQueous One Solution Reagent is added to each well, and the plate incubated for 2 hours at 37° C. The plate is read at 490 nm in a Victor3 plate reader (PerkinElmer Life and Analytical Sciences, Shelton, Conn.). The EC^50 value, defined as the concentration of the sigma ligand required to inhibit cell viability by 50% relative to untreated cells, is determined from the dose response curve for each cell line. Siramesine is accepted as an agonist.

neuronal cultures = assay: Nuclear intensity/morphology in neuronal cultures treated with sigma compounds; format: cell-based; details: 24 hours treatment, compared to vehicle
Procedure: Neuronal cultures are treated with various concentrations of sigma compounds for 24 hours and nuclear intensity compared to vehicle is measured. […] Isoindoline test compounds of the present disclosure are analyzed in this assay to help determine neuronal phenotype, results are shown in Table 2.

Row | Compound | elimination of Abeta 42 oligomer-induced synapse loss [1] | caspase-3 activation (caspase-3) | Action [2] | nuclear morphology / nuclear intensity in neurons (neuronal cultures) | block of caspase-3 activation by agonist SV-119 in neurons (caspase-3; neurons, WO2013/029060 FIG. 10B) | inhibition of caspase-3 activation in tumor cells (caspase-3; tumor cells, WO2013/029060 FIG. 10A) | recovery of synapse loss [1]
1 | CCCN(CCC)CCc1ccc(OC)c(OCCc2ccccc2)c1 [NE-100] | completely eliminated synapse loss |  |  |  |  |  | 
2 | Fc1ccc(-n2cc(CCCCN3CCC4(CC3)OCc3ccccc34)c3ccccc32)cc1 [Siramesine] |  | activate caspase-3 in tumor cells and neurons; also recorded: induces caspase-3 activity | Full agonist | cause significant abnormal nuclear morphology in neurons |  |  | 
3 | COc1cc2c(cc1OC)CN(CCCCNC(=O)c1cc(C)ccc1OC)CC2 [RHM-1, N-[4-(3,4-dihydro-6,7-dimethoxyisoquinolin-2(1H)-yl)butyl]-2-methoxy-5-methylbenzamide] |  | do not induce caspase-3 activity | Antagonist | do not decrease nuclear intensity | not able to block activation | inhibits the activation in tumor cells | 
4 | COc1ccc(C)cc1NC(=O)OC1C[C@H]2CCC[C@@H](C1)N2CCCCCCN (stereo partly drawn) [SV-119] |  | activate caspase-3 in tumor cells and neurons | Full agonist | cause significant abnormal nuclear morphology in neurons |  |  | 
5 | CCC(Oc1ccc(Cl)cc1)C(=O)OC1CC2CCC(C1)N2C (stereo not drawn) [SM-21] | only weakly active in eliminating synapse loss |  |  |  |  |  | 20%
6 | O=C(CCCN1CCC(O)(c2ccc(Cl)cc2)CC1)c1ccc(F)cc1 [haloperidol] | completely eliminated synapse loss |  |  |  |  |  | 
